The first experiment addresses T1, c-kit (Homo sapiens, UniProt P10721).
T1 construct: human Mo7e cells which endogenously express c-kit; endogenous in cells; host or cells: human Mo7e cells (promegakaryocytic leukemia line), stimulated with human recombinant SCF
The experiment in a line: Mo7e cell proliferation assay (SCF dependent proliferation). It counts as cell-based. Particulars: Table 1; human Mo7e cells stimulated with SCF, 48 hours, CellTiter Glo; 1% FBS; read-out: c-kit (Mo7e). The procedure: Mo7e Cell Proliferation Assay The compounds of Table 1 and Table 2 were tested for inhibition of SCF dependent proliferation using human Mo7e cells which endogenously express c-kit in a 384 well format. […] After 48 hours of incubation at 37° C., cell viability was measured by adding 25 uL of CellTiter Glo (Promega) to the cells and the luminescence was measured by a […] camera (Molecular Devices). […] The IC50 value is given as that concentration of the test compound in question that provoke a response halfway between the baseline and maximum responses.
In general terms: ATP-based viability assays read luminescence as a measure of living cells.
T1 sequence (P10721 26-976): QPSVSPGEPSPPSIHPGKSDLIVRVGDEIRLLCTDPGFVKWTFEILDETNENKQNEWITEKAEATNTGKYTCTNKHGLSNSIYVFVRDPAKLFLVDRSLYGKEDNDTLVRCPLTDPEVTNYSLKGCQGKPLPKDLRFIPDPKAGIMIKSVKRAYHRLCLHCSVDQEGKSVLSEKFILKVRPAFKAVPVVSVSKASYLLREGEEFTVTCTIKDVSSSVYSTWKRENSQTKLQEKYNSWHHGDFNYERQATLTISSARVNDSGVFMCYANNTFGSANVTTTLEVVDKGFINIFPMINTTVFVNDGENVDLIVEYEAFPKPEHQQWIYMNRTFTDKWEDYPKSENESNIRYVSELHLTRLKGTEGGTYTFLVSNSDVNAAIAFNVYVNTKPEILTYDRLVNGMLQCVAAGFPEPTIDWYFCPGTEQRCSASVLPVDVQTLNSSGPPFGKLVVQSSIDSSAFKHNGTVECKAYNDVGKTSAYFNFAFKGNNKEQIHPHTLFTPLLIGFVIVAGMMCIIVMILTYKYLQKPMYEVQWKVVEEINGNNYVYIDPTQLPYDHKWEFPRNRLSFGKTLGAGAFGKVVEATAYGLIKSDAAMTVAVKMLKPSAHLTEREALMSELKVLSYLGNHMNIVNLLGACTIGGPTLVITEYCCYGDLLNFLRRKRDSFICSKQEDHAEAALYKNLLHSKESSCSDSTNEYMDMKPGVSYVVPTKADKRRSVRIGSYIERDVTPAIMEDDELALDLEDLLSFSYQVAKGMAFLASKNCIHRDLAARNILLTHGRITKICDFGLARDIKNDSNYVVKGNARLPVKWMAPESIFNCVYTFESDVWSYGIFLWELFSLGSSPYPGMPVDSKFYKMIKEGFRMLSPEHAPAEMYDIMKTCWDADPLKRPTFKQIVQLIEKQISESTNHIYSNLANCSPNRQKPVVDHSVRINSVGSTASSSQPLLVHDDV
On to `Cc1ccc(-c2nc(N3CCC(F)(F)CC3)no2)cc1NC(=O)c1cnc2ccccn12` [F4], for which the IC50 amounted to 0.035 µM.
Consider `Cc1ccc(-c2noc(C3CN(S(N)(=O)=O)C3)n2)cc1NC(=O)c1cnc2ccccn12` [F23, N-(2-methyl-5-(5-(1-sulfamoylazetidin-3-yl)-1,2,4-oxadiazol-3-yl)phenyl)imidazo[1,2-a]pyridine-3-carboxamide], for which the IC50 is 0.088 µM.
Same read-out and setting: then `Cc1ccc(-c2noc(CCCN3CCOCC3)n2)cc1NC(=O)c1cnc2ccccn12` [F20], with 0.095 µM.
As to `Cc1ccc(-c2noc(CN3CCC(F)(F)C3)n2)cc1NC(=O)c1cnc2ccccn12` [F29], the IC50 was 0.016 µM.
For `Cc1ccn2c(C(=O)Nc3cc(-c4noc(N5CCC(F)CC5)n4)ccc3C)cnc2c1` [F90], the IC50 worked out at 0.033 µM.
As for `CCS(=O)(=O)N1CC(c2nc(-c3ccc(C)c(NC(=O)c4cnc5ccccn45)c3)no2)C1` [F19], the IC50 is 0.033 µM.
On the same count and under the same terms, then `Cc1ccc(-c2noc([C@@H]3CCN3S(=O)(=O)C(C)C)n2)cc1NC(=O)c1cnc2ccccn12` [F47], with 0.047 µM.
Turning to `COC(=O)N1CC(c2nc(-c3ccc(C)c(NC(=O)c4cnc5ccc(N6CCOCC6)cn45)c3)no2)C1` [F83], the IC50 is 0.04 µM.
Turning to `O=C(Nc1cc(-c2noc(CN3CCC(F)(F)C3)n2)ccc1F)c1cnc2ccccn12` [F45], the IC50 was determined as 0.09 µM.
On the same count and under the same terms, next, `Cc1ccc(-c2noc(C3CCN(S(C)(=O)=O)CC3)n2)cc1NC(=O)c1cnc2ccccn12` [F34]: 0.095 µM; `Cc1ccc(-c2noc(CN3CC(F)(F)C3)n2)cc1NC(=O)c1cnc2ccccn12` [F21]: 0.044 µM; `Cc1ccn2c(C(=O)Nc3cc(-c4noc(N5CCC(F)(F)CC5)n4)ccc3C)cnc2c1` [F89]: 0.031 µM.
On the same count and under the same terms, then `O=C(Nc1cc(-c2noc(CN3CCC(F)(F)CC3)n2)ccc1F)c1cnc2ccccn12` [F46], with 0.073 µM; and `Cc1ccc2ncc(C(=O)Nc3cc(-c4noc(NC5CCOCC5)n4)ccc3C)n2c1` [F82], with 0.055 µM; and `CCOC(=O)N1CC(c2nc(-c3ccc(C)c(NC(=O)c4cnc5ccccn45)c3)no2)C1` [F53], with 0.093 µM.
With `CCCCS(=O)(=O)N1CC(c2nc(-c3ccc(C)c(NC(=O)c4cnc5ccccn45)c3)no2)C1` [F31], the IC50 worked out at 0.054 µM.
As for `Cc1ccc(-c2noc(CC3CCCO3)n2)cc1NC(=O)c1cnc2ccccn12` (stereo not drawn) [F18], the IC50 worked out at 0.064 µM.
As to `COC(=O)N1CCC(c2nc(-c3ccc(C)c(NC(=O)c4cnc5ccccn45)c3)no2)CC1` [F33], the IC50 was found to be 0.084 µM.
Consider `Cc1ccc(-c2noc(C3(C)CN(S(C)(=O)=O)C3)n2)cc1NC(=O)c1cnc2ccccn12` [F58], for which the IC50 was 0.089 µM.

Staying with this experiment, now noted: Table 2; human Mo7e cells stimulated with SCF, 48 hours, CellTiter Glo; 1% FBS; read-out: c-kit (Mo7e).
As for `CCCS(=O)(=O)N1CC(c2nc(-c3ccc(F)c(NC(=O)c4cnc5ccccn45)c3)no2)C1` [F156], the IC50 was 0.124 µM.
On to `Cc1ccc(-c2noc(C3CNC3)n2)cc1NC(=O)c1cnc2ccccn12` [F298], for which the IC50 is 2.86 µM.
Take `COC(=O)N1CC(c2nc(-c3ccc(C)c(NC(=O)c4cnc5ccc(CCc6nn[nH]n6)cn45)c3)no2)C1` [F308]: the IC50 is > 10 µM.
Regarding `Cc1ccc(-c2noc([C@@H]3CCCN3)n2)cc1NC(=O)c1cnc2ccccn12` [F190], the IC50 was determined as 0.476 µM.
In the case of `COC1CN(Cc2nc(-c3ccc(C)c(NC(=O)c4cnc5ccccn45)c3)no2)C1` [F132], the IC50 was determined as 0.283 µM.
Turning to `Cc1ccc(-c2noc(C[C@H]3CCN(S(C)(=O)=O)C3)n2)cc1NC(=O)c1cnc2ccccn12` [F206], the IC50 is 0.169 µM.
Turning to `COCCCN1CC(c2nc(-c3ccc(C)c(NC(=O)c4cnc5ccccn45)c3)no2)C1` [F225], the IC50 turned out to be 0.239 µM.
For `Cc1ccc(-c2noc(C[C@@H]3CCN(C(=O)OC(C)(C)C)C3)n2)cc1NC(=O)c1cnc2ccccn12` [F184], the IC50 is 0.496 µM.
Turning to `CCCCS(=O)(=O)N1CC(c2nc(-c3ccc(F)c(NC(=O)c4cnc5ccccn45)c3)no2)C1` [F219], the IC50 was found to be 0.158 µM.
For the compound `Cc1ccc(-c2noc(CCN3CC(F)(F)C3)n2)cc1NC(=O)c1cnc2ccccn12` [F179], the IC50 was determined as 0.119 µM.
`COC(=O)N1CCC[C@@H]1c1nc(-c2ccc(C)c(NC(=O)c3cnc4ccccn34)c2)no1` [F212]: the IC50 stood at 0.17 µM.
Regarding `COC(=O)N1CC(c2nc(-c3ccc(C)c(NC(=O)c4cnc5c(F)cccn45)c3)no2)C1` [F242], the IC50 stood at 0.812 µM.
In the case of `CC(=O)N1CC[C@H]1c1nc(-c2ccc(C)c(NC(=O)c3cnc4ccccn34)c2)no1` [F152], the IC50 worked out at 0.738 µM.
Still for that read-out and setting: then `CC(=O)N1CCC[C@H]1c1nc(-c2ccc(C)c(NC(=O)c3cnc4ccccn34)c2)no1` [F197], with 0.46 µM; and `Cc1ccc(-c2noc(C3CN(S(=O)(=O)c4c[nH]cn4)C3)n2)cc1NC(=O)c1cnc2ccccn12` [F299], with 3.52 µM; and `COC(=O)N1CC(c2nc(-c3ccc(C)c(NC(=O)c4cnc5cc(N6CCOC6=O)ccn45)c3)no2)C1` [F250], with 0.114 µM.
As for `Cc1ccc(-c2noc([C@@H]3CCN3)n2)cc1NC(=O)c1cnc2ccccn12` [F136], the IC50 came out at 0.543 µM.
In the case of `Cc1ccn2c(C(=O)Nc3cc(-c4noc(N5CC(S(C)(=O)=O)C5)n4)ccc3C)cnc2c1` [F281], the IC50 came out at 1.37 µM.
With `COC(=O)N1CCO[C@@H](c2nc(-c3ccc(C)c(NC(=O)c4cnc5ccccn45)c3)no2)C1` [F198], the IC50 amounted to 0.142 µM.
Consider `O=C(Nc1cc(-c2noc(CN3CC(F)(F)C3)n2)ccc1F)c1cnc2ccccn12` [F228], for which the IC50 stood at 0.341 µM.
`Cc1ccc(-c2nc(CCOC3CCN(Cc4ccccc4)CC3)no2)cc1NC(=O)c1cnc2ccccn12` [F100]: the IC50 was determined as 0.198 µM.
In the case of `Cc1ccc2ncc(C(=O)Nc3cc(-c4noc(COC5COC5)n4)ccc3C)n2c1` [F260], the IC50 was 0.205 µM.
`Cc1ccc(-c2noc(C3CN(c4cnccn4)C3)n2)cc1NC(=O)c1cnc2ccccn12` [F243]: the IC50 was 0.31 µM.
As for `Cc1ccc(-c2noc(CN3CCOC3=O)n2)cc1NC(=O)c1cnc2ccccn12` [F142], the IC50 came to 0.578 µM.
On the same count and under the same terms, then `COC(=O)N1CC(c2nc(-c3ccc(C)c(NC(=O)c4cnc5ccc(CCC(=O)O)cn45)c3)no2)C1` [F307], with > 10 µM; and `Cc1ccc(-c2noc(C3CN(S(=O)(=O)c4cn[nH]c4)C3)n2)cc1NC(=O)c1cnc2ccccn12` [F218], with 0.155 µM.
Regarding `Cc1ccc(-c2noc(C3CN(S(=O)(=O)c4cccnc4)C3)n2)cc1NC(=O)c1cnc2ccccn12` [F157], the IC50 was determined as 0.153 µM.
On to `Cc1ccc(-c2nc(C3CN(C(=O)OC(C)(C)C)C3)no2)cc1NC(=O)c1cnc2ccccn12` [F300], for which the IC50 came to 3.56 µM.
`Cc1ccc(-c2noc(C3C[C@H](O)CN3)n2)cc1NC(=O)c1cnc2ccc(F)cn12` (stereo partly drawn) [F306]: the IC50 worked out at 8.37 µM.
Consider `Cc1ccc(-c2noc(CNC(=O)[C@@H]3CCCO3)n2)cc1NC(=O)c1cnc2ccccn12` [F147], for which the IC50 amounted to 0.232 µM.
For `Cc1ccc(-c2noc(CNC(=O)[C@H]3CCCO3)n2)cc1NC(=O)c1cnc2ccccn12` [F146], the IC50 was found to be 0.187 µM.
As to `COC(=O)N1CC[C@H]1c1nc(-c2ccc(C)c(NC(=O)c3cnc4ccccn34)c2)no1` [F151], the IC50 stood at 0.357 µM.
Turning to `COC(=O)N1CC(c2noc(-c3ccc(C)c(NC(=O)c4cnc5ccccn45)c3)n2)C1` [F101], the IC50 came to 0.332 µM.
Consider `Cc1ccc(-c2noc([C@@H]3COCCN3)n2)cc1NC(=O)c1cnc2ccccn12` [F276], for which the IC50 is 1.24 µM.
In the case of `Cc1ccc(-c2noc(CNC(=O)CN3CCOCC3)n2)cc1NC(=O)c1cnc2ccccn12` [F144], the IC50 stood at 0.963 µM.
The same measure, in the same setting: next, `COCC1CN(Cc2nc(-c3ccc(C)c(NC(=O)c4cnc5ccccn45)c3)no2)C1` [F182]: 0.259 µM; `Cc1ccc(-c2noc(CC3CCN(S(C)(=O)=O)CC3)n2)cc1NC(=O)c1cnc2ccccn12` [F215]: 0.175 µM; `Cc1ccc(-c2nc(N3CC(C)(O)C3)no2)cc1NC(=O)c1cnc2ccccn12` [F251]: 0.157 µM.
Same read-out and setting: next, `Cc1ccc(-c2noc([C@@H]3CC(F)(F)CN3C(=O)OC(C)(C)C)n2)cc1NC(=O)c1cnc2ccccn12` [F120]: 0.311 µM; `Cc1ccc(-c2nc(N3CC4(COC4)C3)no2)cc1NC(=O)c1cnc2ccccn12` [F294]: 2.2 µM; `Cc1ccc(-c2noc(C3CN(C(=O)C(F)(F)F)C3)n2)cc1NC(=O)c1cnc2ccccn12` [F230]: 0.217 µM.
On to `COC(=O)N1CC(C)(c2nc(-c3ccc(C)c(NC(=O)c4cnc5ccccn45)c3)no2)C1` [F240], for which the IC50 turned out to be 0.249 µM.
Take `Cc1ccc(-c2noc(C3CCNC3)n2)cc1NC(=O)c1cnc2ccccn12` (stereo not drawn) [F296]: the IC50 is 2.44 µM.
For `CC(C)(C)OC(=O)N1CC(c2nc(-c3ccc(F)c(NC(=O)c4cnc5ccccn45)c3)no2)C1` [F153], the IC50 was 0.997 µM.
Consider `COCc1n[nH]c(-c2ccc3ncc(C(=O)Nc4cc(-c5noc(C6CN(C(=O)OC)C6)n5)ccc4C)n3c2)n1` [F253], for which the IC50 turned out to be 0.215 µM.
On the same count and under the same terms, next, `Cc1ccc(-c2noc([C@@H]3CN(C(=O)OC(C)(C)C)CCO3)n2)cc1NC(=O)c1cnc2ccccn12` [F122]: 0.296 µM; `COC(=O)N1CCOC[C@@H]1c1nc(-c2ccc(C)c(NC(=O)c3cnc4ccccn34)c2)no1` [F166]: 0.163 µM.
`Cc1ccc(-c2noc(C3CN(S(=O)(=O)C4CCOCC4)C3)n2)cc1NC(=O)c1cnc2ccccn12` [F160]: the IC50 was 0.38 µM.
For the compound `Cc1ccc(-c2noc([C@H]3C[C@@H](O)CN3S(C)(=O)=O)n2)cc1NC(=O)c1cnc2ccc(F)cn12` [F273], the IC50 stood at 1.17 µM.

The same experiment, now with this note: c-kit (Mo7e) μM, Table 1; human Mo7e cells stimulated with SCF, 48 hours, CellTiter Glo; 1% FBS.
For `Cc1ccc(-c2noc([C@@H]3CCC(F)(F)CO3)n2)cc1NC(=O)c1cnc2ccccn12` [F11], the IC50 was 0.023 µM.
